Results as given in publication PMC12736194, “1-Azinyl-1′-Alkenylferrocenes with Anticholinesterase, Antioxidant, and Antiaggregating Activities as Multifunctional Agents for Potential Treatment of Alzheimer’s Disease” (Pharmaceuticals, 2025).

How the values were obtained:
[1] = biological target: T1, human (Homo sapiens) erythrocyte AChE (HsAChE) (Homo sapiens, UniProt P22303); assay: Inhibition of HsAChE (spectrophotometric, ATCh iodide substrate); format: biochemical; details: K/Na-phosphate buffer pH 7.5, 25 °C; mean ± SEM, n = 3
T1 construct: human (Homo sapiens) erythrocyte AChE (HsAChE); purchased Sigma-Aldrich; host or cells: human erythrocytes
Protocol: (§1) In these experiments, human (Homo sapiens) erythrocyte AChE (HsAChE), equine (Equus caballus) serum BChE (EcBChE), and porcine (Sus scrofa) liver CES (SsCES) were used because of their ready availability, relatively low cost, and high sequence homology of EcBChE and SsCES to the corresponding human enzymes.
(§2) Enzymes, substrates, and reference compounds were sourced from Sigma-Aldrich (St. Louis, MO, USA). Enzyme activity was measured spectrophotometrically according to [91] using ATCh iodide, BTCh iodide, and 4-NPA as substrates for HsAChE, EcBChE, and SsCES, respectively. Experimental conditions included a K/Na-phosphate buffer (100 mM), at 25 °C, with pH 7.5 for AChE and BChE assays, and pH 8.0 for CES assays. Measurements were conducted on a BioRad Benchmark Plus microplate spectrophotometer (Hercules, CA, USA). Test compounds were dissolved in DMSO with a final solvent concentration of 2% (v/v) in the incubation mixture.

[2] = biological target: T2, equine (Equus caballus) serum BChE (EcBChE) (Equus caballus, UniProt P81908); assay: Inhibition of EcBChE (spectrophotometric, BTCh iodide substrate); format: biochemical; details: K/Na-phosphate buffer pH 7.5, 25 °C; mean ± SEM, n = 3
T2 construct: equine (Equus caballus) serum BChE (EcBChE); purchased Sigma-Aldrich; host or cells: horse serum
Protocol: as §1, §2

[3] = test system: porcine (Sus scrofa) liver CES (SsCES); assay: Inhibition of SsCES (spectrophotometric, 4-NPA substrate); format: biochemical; details: compound 20 μM; n.a. = not active; mean ± SEM, n = 3
Text: as §1
Although the dominant carboxylesterase in porcine liver is CES1 [64], the preparation sourced from Sigma-Aldrich is not a purified or recombinant CES1. Therefore, we have designated the preparation used in our experimental studies as SsCES. However, in computational molecular docking studies, it is necessary to choose a single defined protein as the docking target. Thus, the logical choice for our computational studies of CES was the most abundant and best characterized isoform found in porcine liver, which is SsCES1.
as §2

[4] = biological target: T3, peripheral anionic site (PAS) of Electrophorus electricus AChE (EeAChE) (Electrophorus electricus, UniProt O42275); assay: Propidium displacement from the EeAChE PAS (fluorescence); format: binding; details: compound concentration 20 µM; EeAChE 7 μM, propidium iodide 8 μM, Tris-HCl pH 8.0; n.a. = not active
T3 construct: purchased Sigma-Aldrich type VI-S
Protocol: A fluorescence-based assay assessed the ability of test compounds to competitively displace propidium iodide from AChE’s PAS [65, 93]. […] EeAChE (7 μM) was incubated with 20 μM test compounds in Tris-HCl buffer (pH 8.0) for 15 min, followed by addition of propidium iodide (8 μM) as described in detail in [95]. Fluorescence readings (530 nm excitation, 600 nm emission) were obtained using a FLUOStar Optima microplate reader (LabTech, Ortenberg, Germany). Displacement (%) was calculated.

[5] = biological target: T4, human β-amyloid (1–42) (HsAβ42) (Homo sapiens, UniProt P05067); assay: Inhibition of HsAβ42 self-aggregation (thioflavin T fluorescence); format: biochemical; details: HsAβ42 50 µM, compound 100 µM, 24 h, 37 °C; n.a. = not active
T4 construct: purchased AnaSpec Inc
Protocol: The potential of compounds from all three groups (1a-e, 5a-e, 7a-d) to inhibit HsAβ42 self-aggregation was evaluated using a Thioflavin T (ThT) fluorescence assay.
Inhibition of HsAβ42 self-aggregation by test compounds was studied using the thioflavin T (ThT) fluorescence method with minor modifications as described in detail in [79]. Lyophilized HFIP-pretreated HsAβ42 (AnaSpec Inc., Fremont, CA, USA, 0.5 mg) was dissolved in DMSO to obtain a stable 500 μM solution. The samples of 50 μM HsAβ42 in 215 mM Na-phosphate buffer pH 8.0 were incubated for 24 h at 37 °C in the absence or presence of 100 μM test compounds. Myricetin in the same concentration was used as a reference. After incubation, 5 μM ThT in 50 mM glycine-NaOH buffer pH 8.5 was added, and the fluorescence was measured at 440 nm (exc.) and 485 nm (emis.) with a FLUOStar Optima microplate reader. Blanks consisted of 215 mM Na-phosphate buffer, pH 8.0, 20% (v/v) DMSO or test compounds, respectively. The inhibition (%) of HsAβ42 self-aggregation by the test compounds was calculated.

[6] = ABTS radical cation scavenging activity assay; details: ethanol, 1 h; for IC50: ABTS^•+ 100 μM; for ABTS^•+-Scavenging Activity, TEAC: Trolox equivalent antioxidant capacity, mean ± SEM, n = 3
[7] = Ferric reducing antioxidant power (FRAP) assay; details: Trolox equivalents; acetate buffer pH 3.6, 1 h, 37 °C
[8] = test system: reprogrammed human neuronal cell cultures (MSC-Neu); assay: Cytotoxicity, MTT test, MSC-Neu; details: read-out: Cytotoxic activity, LC50, MSC-Neu, 24 h, 1 to 1024 μM, mean ± SE, n = 3
Protocol: (§3) Cytotoxic activity was assessed using the MTT test. […] For each compound, the half-lethal concentration parameter LC50 (μM) was calculated.
(§4) This study employed SH-SY5Y neuroblastoma cells and dental pulp-derived mesenchymal stem cells (MSC-DP). Cells were cultured in DMEM/F12 with 10% (v/v) FBS under standard conditions. MSC-DP were reprogrammed into neuronal-like cells (MSC-Neu) using Neurobasal medium with addition of Neuromax and 3% (v/v) FBS for 5 days.
(§5) The cytotoxic effect of Fcs was assessed using the Mossman test for cellular dehydrogenase activity (MTT test). […] For each compound, the half-lethal concentration parameter (LC50) in μM was calculated as described previously.

[9] = test system: human neuroblastoma cell cultures (SH-SY5Y); assay: Cytotoxicity, MTT test, SH-SY5Y; details: read-out: Cytotoxic activity, LC50, SH-SY5Y, 24 h, 1 to 1024 μM, mean ± SE, n = 3
Protocol: as §3, §4, §5

HsAChE = biological target: T5, HsAChE (Homo sapiens, UniProt P22303); assay: Kinetic study of HsAChE inhibition (Lineweaver-Burk); format: biochemical
T5 construct: human (Homo sapiens) erythrocyte AChE (HsAChE); purchased Sigma-Aldrich; host or cells: human erythrocytes
Protocol: (§6) . To determine the relationship between enzyme activity and inhibitor concentration at different substrate levels, we conducted kinetic assays. The kinetic data analysis, using Lineweaver–Burk plots, is shown in Figure 2A and Figure 2B for HsAChE and EcBChE, respectively.
(§7) To investigate the mechanisms of HsAChE and EcBChE inhibition, enzyme kinetics were analyzed (detailed in [92]). After a 5 min equilibration at 25 °C with three different inhibitor concentrations and six substrate concentrations, residual enzyme activity was measured as described. Lineweaver–Burk plots (1/V vs. 1/[S]) were used to determine competitive (Ki) and non-competitive (αKi) inhibition constants.

EcBChE = biological target: T6, EcBChE (Equus caballus, UniProt P81908); assay: Kinetic study of EcBChE inhibition (Lineweaver-Burk); format: biochemical
T6 construct: equine (Equus caballus) serum BChE (EcBChE); purchased Sigma-Aldrich; host or cells: horse serum
Protocol: as §6, §7

MCF7 cell line = details: Figure 12; read-out: LC50, MCF7 cell line; cited from earlier work
[10] = cited from earlier work

T6 sequence (P81908 whole entry): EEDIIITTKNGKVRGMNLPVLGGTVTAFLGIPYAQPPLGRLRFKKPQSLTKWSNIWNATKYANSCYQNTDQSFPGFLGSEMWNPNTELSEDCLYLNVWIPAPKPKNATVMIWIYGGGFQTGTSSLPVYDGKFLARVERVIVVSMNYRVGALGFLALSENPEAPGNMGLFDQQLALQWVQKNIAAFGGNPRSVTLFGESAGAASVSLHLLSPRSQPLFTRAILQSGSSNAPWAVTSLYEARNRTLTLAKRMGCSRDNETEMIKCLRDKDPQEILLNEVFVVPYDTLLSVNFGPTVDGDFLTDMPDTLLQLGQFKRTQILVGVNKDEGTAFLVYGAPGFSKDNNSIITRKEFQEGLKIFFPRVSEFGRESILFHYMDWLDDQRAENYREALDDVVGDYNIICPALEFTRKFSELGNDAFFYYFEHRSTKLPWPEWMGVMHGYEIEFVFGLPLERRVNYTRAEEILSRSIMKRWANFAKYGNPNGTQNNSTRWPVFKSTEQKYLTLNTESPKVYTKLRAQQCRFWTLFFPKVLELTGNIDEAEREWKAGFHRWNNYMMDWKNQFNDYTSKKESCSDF
T2 sequence (P81908 whole entry): as above
T5 sequence (P22303 32-617 isoform P22303-2 limits assumed): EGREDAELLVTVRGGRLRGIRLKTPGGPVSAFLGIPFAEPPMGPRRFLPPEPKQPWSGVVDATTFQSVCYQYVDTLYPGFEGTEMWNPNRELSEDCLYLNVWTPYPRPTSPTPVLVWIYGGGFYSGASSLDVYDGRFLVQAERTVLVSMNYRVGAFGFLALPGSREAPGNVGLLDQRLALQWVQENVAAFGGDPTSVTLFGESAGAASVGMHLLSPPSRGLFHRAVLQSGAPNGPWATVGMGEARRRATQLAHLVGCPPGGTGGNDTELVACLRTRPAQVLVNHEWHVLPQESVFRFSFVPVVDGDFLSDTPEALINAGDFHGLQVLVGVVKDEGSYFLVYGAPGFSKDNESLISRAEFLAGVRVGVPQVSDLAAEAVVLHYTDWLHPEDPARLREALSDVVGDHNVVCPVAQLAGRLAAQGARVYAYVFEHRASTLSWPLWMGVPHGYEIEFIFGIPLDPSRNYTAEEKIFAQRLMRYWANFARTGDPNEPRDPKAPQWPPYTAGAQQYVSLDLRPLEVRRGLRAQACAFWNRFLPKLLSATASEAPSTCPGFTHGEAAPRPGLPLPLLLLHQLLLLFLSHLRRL
T1 sequence (P22303 32-617 isoform P22303-2 limits assumed): as above
T3 sequence (O42275 24-633): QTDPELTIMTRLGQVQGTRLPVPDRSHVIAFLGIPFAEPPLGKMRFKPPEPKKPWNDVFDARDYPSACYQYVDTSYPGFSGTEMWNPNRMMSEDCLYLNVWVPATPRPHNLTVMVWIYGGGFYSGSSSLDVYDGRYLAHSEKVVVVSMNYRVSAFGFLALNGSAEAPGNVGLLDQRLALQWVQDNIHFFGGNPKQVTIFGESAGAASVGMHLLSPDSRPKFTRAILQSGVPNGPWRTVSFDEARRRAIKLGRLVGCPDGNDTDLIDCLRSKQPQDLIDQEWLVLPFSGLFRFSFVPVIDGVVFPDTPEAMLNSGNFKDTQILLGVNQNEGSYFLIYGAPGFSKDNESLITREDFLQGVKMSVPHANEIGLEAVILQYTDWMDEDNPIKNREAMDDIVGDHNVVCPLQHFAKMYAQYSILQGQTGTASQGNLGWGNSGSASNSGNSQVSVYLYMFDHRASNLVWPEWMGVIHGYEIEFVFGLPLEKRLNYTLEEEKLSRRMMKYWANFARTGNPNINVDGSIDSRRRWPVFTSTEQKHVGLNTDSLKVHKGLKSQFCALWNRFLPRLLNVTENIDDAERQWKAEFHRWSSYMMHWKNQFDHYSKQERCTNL
T4 sequence (P05067 672-713 limits assumed): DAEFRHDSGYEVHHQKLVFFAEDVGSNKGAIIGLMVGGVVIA

Row | SMILES | IC50 [1] [µM] | IC50 [2] [µM] | Inhibition of SsCES, % inhibition at 20 μM [3] [%] | Propidium Displacement, (%) [4] [%] | HsAβ42 self-Aggregation Inhibition, (%) [5] [%] | IC50 [6] [µM] | ABTS^•+-Scavenging Activity, TEAC [6] | Ferric Reducing Antioxidant Power, TE [7] | CC50 [8] [µM] | CC50 [9] [µM] | noncompetitive component of inhibition constant (αKi), HsAChE (HsAChE) [µM] | type of inhibition, HsAChE (HsAChE; Vmax and Km both change) | Ki (HsAChE; read-out: competitive component of inhibition constant (Ki), HsAChE) [µM] | noncompetitive component of inhibition constant (αKi), EcBChE (EcBChE) [µM] | type of inhibition, EcBChE (EcBChE; Vmax and Km both change) | Ki (EcBChE; read-out: competitive component of inhibition constant (Ki), EcBChE) [µM] | CC50 (MCF7 cell line) [µM] | Experimental pKa [10]
1 | C=C(C)[c-]1cccc1.[Fe+2].c1ccc2nc(-[c-]3cccc3)ccc2c1 [5b] | 4.01 ± 0.28 | 9.91 ± 0.69 | 35.4 ± 2.8 | 11.5 ± 0.8 | 82.9 ± 6.6 | 5.6 ± 0.3 | 4.3 ± 0.2 | 3.13 ± 0.17 | 564 ± 31.8 | 281 ± 30.1 |  |  |  |  |  |  |  | 
2 | C=C[c-]1cccc1.[Fe+2].c1ccc(-c2cccc(-[c-]3cccc3)n2)nc1 [7d, 1-(2,2′-Bipyridin-6-yl)-1′-Vinylferrocene] | 6.34 ± 0.51 | 7.94 ± 0.55 | 5.8 ± 1.3 | 9.7 ± 0.6 | 81.5 ± 4.9 | 15.6 ± 0.7 | 1.36 ± 0.06 | 1.93 ± 0.06 | 299 ± 21.9 | 158 ± 19.8 |  |  |  |  |  |  |  | 
3 | C=C[c-]1cccc1.[Fe+2].c1ccc2nc(-[c-]3cccc3)ccc2c1 [7b, 1-(Quinolin-2-yl)-1′-Vinylferrocene] | 3.32 ± 0.23 | 3.68 ± 0.29 | 29.8 ± 2.6 | 7.7 ± 0.6 | 89.6 ± 6.2 | 5.3 ± 0.2 | 4.4 ± 0.2 | 2.21 ± 0.02 | 277 ± 14.8 | 287 ± 31.7 | 3.05 ± 0.18 | mixed type of inhibition | 1.92 ± 0.13 | 4.58 ± 0.27 | mixed type of inhibition | 2.77 ± 0.22 |  | 
4 | CC(=C(c1ccc(O)cc1)c1ccc(O)cc1)[c-]1cccc1.[Fe+2].c1cc[cH-]c1 [compound 10, 1,1-bis(4-hydroxyphenyl)-2-ferrocenylprop-1-ene, reference compound] |  |  |  |  |  |  |  |  | 104 ± 12.3 | 43.4 ± 6.7 |  |  |  |  |  |  | 18.1 ± 2.1 | 
5 | [Fe+2].c1cc[cH-]c1.c1ccc(-c2cccc(-[c-]3cccc3)n2)nc1 [1d] | 7.89 ± 0.63 | 13.8 ± 1.2 | 20.9 ± 1.6 | 11.1 ± 0.9 | 63.7 ± 5.1 | 20.6 ± 1.5 | 1.00 ± 0.04 | 1.77 ± 0.04 | 632 ± 22.8 | 152 ± 21.2 |  |  |  |  |  |  |  | 
6 | CCC(=C(c1ccc(O)cc1)c1ccc(O)cc1)[c-]1cccc1.[Fe+2].c1cc[cH-]c1 [Ferrocifenol] |  |  |  |  |  |  |  |  |  |  |  |  |  |  |  |  | 0.9 | 
7 | c1ccc(-c2ccccn2)nc1 [Bipyridine] |  |  |  |  |  |  |  |  |  |  |  |  |  |  |  |  |  | 4.35
8 | CC(=C(c1ccc(O)cc1)c1ccc(O)cc1)[c-]1cccc1.[Fe+2].c1ccc2nc(-[c-]3cccc3)ccc2c1 [compound 11, 1-(quinolin-2-yl)-1’-{1-[bis(4-hydroxyphenyl)methylene]ethyl}ferrocene, reference compound] |  |  |  |  |  |  |  |  | 139 ± 15.7 | 57.8 ± 8.2 |  |  |  |  |  |  | 50.9 ± 3.65 | 
9 | [Fe+2].c1cc[cH-]c1.c1ccc2nc(-[c-]3cccc3)ccc2c1 [1b] | 68.1 ± 3.4 | 2.7 ± 0.19 | 29.8 ± 2.0 | 10.2 ± 0.8 | 79.5 ± 6.3 | 6.6 ± 0.3 | 4.2 ± 0.2 | 2.21 ± 0.01 | 393 ± 13.2 | 243 ± 27.4 |  |  |  |  |  |  |  | 
10 | C=C(C)[c-]1cccc1.[Fe+2].c1ccc(-c2cccc(-[c-]3cccc3)n2)nc1 [5d] | 5.12 ± 0.41 | 4.86 ± 0.39 |  | 8.2 ± 0.6 | 83.8 ± 4.2 | 20.8 ± 0.1 | 0.94 ± 0.05 | 1.47 ± 0.06 | 414 ± 18.6 | 189 ± 19.3 |  |  |  |  |  |  |  | 
